Source: patent publication US8466161B2, “Hydroxamate derivative, a production method for the same, and a pharmaceutical composition comprising the same” (Chong Kun Dang Pharmaceutical Corp., priority 2009, dated 2013)

Experiments:
HL60 cell line = assay: Inhibitory effect on growth of HL60 cell line (MTT); assay type: cell-based; conditions: Homo sapiens, HL-60, 72 h, 3 days culture
Experimental: In the culture of HL60 cells, 10% FBS-containing RPMI1640 medium was used Each of test substances was serially diluted in DMSO to a concentration of 10 mg/ml and serially diluted in PBS to a final concentration ranging from 100 μg/ml to 0.03 μg/ml. 20 μl (micro-liter) of each of the serially diluted test substances and 180 μl (micro-liter) of a medium containing 60×10^4 cells/ml were added to a 96-well plate and cultured under conditions of 37° C. and 5% CO2 for 3 days. After completion of the culture, 50 μl (micro-liter) of a solution of 1.25 mg/ml MTT (3-(4,5-dimethylthiazol-2-yl)-2,5-diphenyltetrazolium bromide) in PBS was added to each well of the plate and incubated at 37° C. for 3 hours. The formed formazan crystal was dissolved in 150 μl (micro-liter) of DMSO, and the absorbance at 570 nm was measured.

[1] = tested on: HCT116 (human colorectal carcinoma); assay: In vivo anticancer activity, HCT116 tumor transplantation model; set-up: species or system BALB/c nude mice (human tumor xenograft)
Experimental: (§1) Male BALB/c nude mice (4-week old) used in human tumor transplantation studies were purchased from Central Animal Laboratory Inc. (Korea) or Orient Bio Inc. (Korea). The animals were permitted ad libitum access to sterile feed and water in a sterile breeding system at 23+0.5° C.
(§2) For use in tumor transplantation studies, the human cancer cell lines HCT116 (human colorectal carcinoma, CCL-247), PC-3 (human prostate adenocarcinoma, CRL-1435), and A549 (human lung carcinoma, CCL-185) were purchased from ATCC (American Type Culture Collection, Rockville, Md., USA).
(§3) HCT116 cells were cultured in an air incubator under conditions of 37° C. and 5% CO2 using McCoy'SA medium (Gibco BRL) containing 10% heat-inactivated fetal bovine serum (Gibco BRL) and 1% antibiotics-antymycotics (Gibco BRL). Cell lines other than the HCT116 cell line were cultured in an air incubator under conditions of 37° C. and 5% CO2 using RPM1640 medium (Gibco BRL) containing 10% heat-inactivated fetal bovine serum (Gibco BRL) and 1% antibiotics-antymycotics (Gibco BRL).
(§4) Studies on the in vivo transplantation of human cancer cells were carried out in the following manner. Human cancer cells (HCT116, PC-3, and A549) that proliferated in vitro were injected subcutaneously into the abdominal region of BALB/c nude mice and allowed to proliferate in vivo. 20-25 days after the injection, the mice were sacrificed by cervical dislocation, and the solid cancer that proliferated in each of the mice was isolated aseptically, and connective or necrotic tissue and skin was removed therefrom, thus collecting a fresh cancer tissue. 50 mg of a fragment was taken aseptically from the cancer tissue and inserted into a 16-gauge trocar which was then transplanted subcutaneously into the upper abdominal region of mice.
(§5) 15-30 days after the human cancer cell lines have been transplanted into the BALB/c nude mice, only mice in which the cancer cells have proliferated to a given size were selected and used in the experiment. When the tumor size in each of the test groups reached 100-200 mm^3 after cancer cell transplantation, the experiment was started.
(§6) The anticancer effect of each drug was evaluated based on the inhibition rate (IR %) of tumor volume that indicates the tumor volume at reference date in comparison with control groups. […] Tumor size=(short diameter)×(long diameter)/2 I.R.(%)=[1−(mean tumor size of drug-administered group)/(mean tumor size of control group)]×100

[2] = tested on: A549 (human lung carcinoma); assay: In vivo anticancer activity, A549 tumor transplantation model; set-up: species or system BALB/c nude mice (human tumor xenograft); conditions: for IR (%): Table 20
Experimental: as §1, §2, §3, §4, §5, §6

[3] = tested on: PC-3 (human prostate adenocarcinoma); assay: In vivo anticancer activity, PC-3 tumor transplantation model; set-up: species or system BALB/c nude mice (human tumor xenograft); conditions: for IR (%): Table 21
Experimental: as §1, §2, §3, §4, §5, §6

P450 (CYP3A4) = P450 (CYP3A4) (Homo sapiens, UniProt P08684); assay: P450 (CYP3A4) inhibitory activity (BFC fluorescent substrate); assay type: in vitro ADME; conditions: FIG. 6; in words
Experimental: P450 (CYP3A4) is a metabolic enzyme, and non-inhibition of the enzyme by a test compound means that the test substance has a low possibility of causing side effects by interaction with other drugs. Each of compounds used in the test was dissolved in DMSO (10 mg/ml), and the dilution of each test substance to 2×10^−2 mg/ml was additionally performed in 200 μl (micro-liter) of a test system containing an assay buffer. The final solvent concentration was not higher than 2%. The CYP3A4 protein inhibitory test system included a total assay volume (100 μl (micro-liter)) of a NADPH production system (3.3 mM glucose-6-phosphate, 0.4 units/ml glucose-6-phosphate dehydrogenase, 1.3 mM NADP+ and 3.3 mM MgCl2.6H2O in assay buffer) and a test compound in each well of a 96-well plate. After pre-incubation at 37° C. for 10 minutes, 100 μl (micro-liter) of a KPO4 assay buffer containing […] P450 protein and 50 uM BFC (7-benzyloxy-trifluoromethylcoumarin) fluorescent probe substrate was added to the test system, and an enzyme reaction in the test system having a total assay volume of 200 μl (micro-liter) was initiated. […] Irradiation with fluorescence was carried out at an excitation wavelength of 409 nm and an emission wavelength of 530 nm.

in vivo = conditions: BALB/c nude, mouse, ip
HDAC enzymes = assay: Effects against HDAC enzymes (BIOMOL kit, Hela nuclear extract); assay type: biochemical; conditions: 37° C. 1 hour
Experimental: To measure effects against HDAC enzymes, a kit (BIOMOL International, LP) was used Each of test substances was dissolved in DMSO to a concentration of 10 mg/ml, and an assay buffer, an enzyme solution, a substrate and a staining reagent were prepared. […] Also, the staining reagent was a mixture of assay buffer (19/20), developer (1/20) and TSA (1/100). The assay buffer, the enzyme solution, the test substance and the substrate were added sequentially to a 96-well plate, stirred on a rocker for 3 minutes, and then incubated at 37° C. for 1 hour. After completion of the incubation, the staining reagent was added, and the mixture was stirred on a rocker for 1 minute and then incubated at 37° C. for 20 minutes (the staining reagent was mixed before addition).

[4] = Maximum tolerated dose in the HCT116 xenograft experiments; conditions: BALB/c nude, mouse, in vivo, ip
[5] = BALB/c nude, mouse, in vivo, ip, 2 weeks
[6] = Table 18, 80 mg/kg/day, qd x 5, 2 wks, ip
[7] = 60 mg/kg, b.i.wk(Mon, Thu), 3 wks, ip
[8] = 80 mg/kg, b.i.wk(Mon, Thu), 3 wks, ip
[9] = 100 mg/kg, b.i.wk(Mon, Thu), 3 wks, ip
[10] = Table 19, 40 mg/kg/day, qd x 5, 2 wks, ip
[11] = Table 19, 60 mg/kg/day, qd x 5, 2 wks, ip

P450 (CYP3A4), sequence (P08684 whole entry, species assumed): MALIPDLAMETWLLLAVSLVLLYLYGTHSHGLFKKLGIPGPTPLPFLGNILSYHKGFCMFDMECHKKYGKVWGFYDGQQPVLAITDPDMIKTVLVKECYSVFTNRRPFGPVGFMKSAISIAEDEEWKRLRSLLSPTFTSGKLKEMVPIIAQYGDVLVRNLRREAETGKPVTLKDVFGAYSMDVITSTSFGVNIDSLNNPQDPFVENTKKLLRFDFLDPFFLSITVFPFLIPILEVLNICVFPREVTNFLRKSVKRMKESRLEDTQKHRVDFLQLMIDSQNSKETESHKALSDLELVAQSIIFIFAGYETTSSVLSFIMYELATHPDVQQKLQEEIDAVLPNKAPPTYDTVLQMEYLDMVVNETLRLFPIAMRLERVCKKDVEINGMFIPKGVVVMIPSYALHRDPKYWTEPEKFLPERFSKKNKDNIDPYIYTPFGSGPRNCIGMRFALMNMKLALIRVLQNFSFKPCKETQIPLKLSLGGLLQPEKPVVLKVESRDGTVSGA

SMILES: CN1CCN(C(=O)N(CCCCCCC(=O)NO)c2ccc(-c3ccc4cnn(C)c4c3)cc2)CC1 [Compound 312, N-(7-(hydroxyamino)-7-oxoheptyl)-4-methyl-N-(4-(1-methyl-1H-indazol-6-yl)phenyl)piperazine-1-carboxamide]
- IC50 (HL60 cell line): 50 to 100 nM
- IR (%) ([1]; Table 18, 20 mg/kg/day, qd x 5, 2 wks, ip): 51%
- IR (%) ([1]; Table 18, 40 mg/kg/day, qd x 5, 2 wks, ip): 58%
- IR (%) ([1]; Table 18, 60 mg/kg/day, qd x 5, 2 wks, ip): 70%
- IR (%) [1, 6]: 81%
- IR (%) ([1]; Table 22, 150 mg/kg, b.i.wk(Mon, Thu), 3 wks, p.o): 52%
- IR (%) ([1]; Table 22, 180 mg/kg, b.i.wk(Mon, Thu), 3 wks, p.o): 55%
- IR (%) ([1]; Table 22, 210 mg/kg, b.i.wk(Mon, Thu), 3 wks, p.o): 69%
- colon cancer (HCT 116) inhibitory effect compared to control drugs ([1]; ip, qd x 5, 2 wks, in words): excellent colon cancer inhibitory effects
- inhibitory effect against colon cancer (HCT116) upon oral administration compared to LBH 589, SAHA and MGCD0103 ([1]; oral, twice a week for 3 weeks, in words): excellent inhibitory effect
- IR (%) [2, 7]: 50%
- IR (%) [2, 8]: 56%
- IR (%) [2, 9]: 71%
- inhibitory effect against non-small cell lung cancer (A549) ([2]; administered twice a week, in words): excellent inhibitory effect
- IR (%) [3, 7]: 39%
- IR (%) [3, 8]: 39%
- IR (%) [3, 9]: 59%
- inhibitory effects against prostate cancer (PC-3) compared to LBH 589 ([3]; twice a week for 3 weeks, in words): excellent inhibitory effects
- P450 3A4 inhibition (P450 (CYP3A4)): did not inhibit
- P450 3A4 inhibitory activity relative to LBH 589 (P450 (CYP3A4)): lower than that of LBH 589

SMILES: Cc1cc2cc(-c3ccc(N(CCCCCCC(=O)NO)C(=O)N4CCN(C)CC4)cc3)ccc2[nH]1 [Compound 334, N-(7-(hydroxyamino)-7-oxoheptyl)-4-methyl-N-(4-(2-methyl-1H-indol-5-yl)phenyl)piperazine-1-carboxamide]
- IC50 (HL60 cell line): 10 to 20 nM
- IR (%) [1, 10]: 47%
- IR (%) [1, 11]: 66%
- MTD at 2 weeks (in vivo): 60 mg/kg

SMILES: CCN1CCN(C(=O)N(CCCCCCC(=O)NO)c2ccc(-c3ccc4cnn(C)c4c3)cc2)CC1 [Compound 336, 4-ethyl-N-(7-(hydroxyamino)-7-oxoheptyl)-N-(4-(1-methyl-1H-indazol-6-yl)phenyl)piperazine-1-carboxamide]
- IC50 (HL60 cell line): 50 to 100 nM
- IR (%) [1, 10]: 56%
- IR (%) [1, 11]: 75%
- IR (%) ([1]; Table 19, 80 mg/kg/day, qd x 5, 2 wks, ip): 78%
- colon cancer (HCT 116) inhibitory effect compared to control drugs ([1]; ip, qd x 5, 2 wks, in words): excellent inhibitory effects on colon cancer
- MTD at 2 weeks (in vivo): 80 mg/kg

SMILES: Cc1[nH]c2ccccc2c1CCNCc1ccc(/C=C/C(=O)NO)cc1 [LBH 589, Panobinostat, reference compound]
- IC50 (HL60 cell line): 20 to 50 nM
- IR (%) ([1]; Table 18, 5 mg/kg/day, qd x 5, 2 wks, ip): 40%
- IR (%) ([1]; Table 18, 10 mg/kg/day, qd x 5, 2 wks, ip): 65%
- IR (%) ([1]; Table 19, 5 mg/kg/day, qd x 5, 2 wks, ip): 40%
- IR (%) ([1]; Table 19, 10 mg/kg/day, qd x 5, 2 wks, ip): 65%
- IR (%) ([1]; Table 22, 50 mg/kg/day, qd x 5, 3 wks, p.o): 0%
- IR (%) ([2]; 10 mg/kg/day, qd x 5, 3 wks): 58%
- IR (%) ([3]; 10 mg/kg/day, qd x 5, 3 wks): 48%
- MTD at 2 weeks (in vivo): 10 mg/kg

SMILES: Nc1ccccc1NC(=O)c1ccc(CNc2nccc(-c3cccnc3)n2)cc1 [MGCD 0103, reference compound]
- IR (%) ([1]; Table 22, 120 mg/kg/day, qd x 5, 3 wks, p.o): 50%

SMILES: O=C(/C=C/c1cccc(S(=O)(=O)Nc2ccccc2)c1)NO [PXD 101, Belinostat, reference compound]
- IC50 (HL60 cell line): 100 to 200 nM
- IC50 (HDAC enzymes): 100 to 200 nM
- IR (%) [1, 6]: 38%
- MTD at 2 weeks [4]: 80 mg/kg

SMILES: O=C(CCCCCCC(=O)Nc1ccccc1)NO [SAHA, vorinostat, reference compound]
- IR (%) ([1]; Table 18, 100 mg/kg/day, qd x 5, 2 wks, ip): 46%
- IR (%) ([1]; Table 22, 200 mg/kg/day, qd x 5, 3 wks, p.o): 26%
- maximum tolerated doses (MTDs) [5]: 100 mg/kg
